Measurements: PubChem BioAssay (NCI)
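Dose response: 5 concentrations. Exposure: 48 h. Format: 96-well plates. Endpoint: linear interpolation; highest concentration if not reached. TGI denotes the concentration required for complete inhibition of growth.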

How the values were obtained:
Assay in all cases: DTP human tumour cell line panel, 48 h
[1] = system: OVCAR-3 ovarian
[2] = system: SW-620 colon
[3] = system: IGROV1 ovarian
[4] = system: SF-268 CNS
[5] = system: SF-295 CNS
[6] = system: HT29 colon
[7] = system: U251 CNS
[8] = system: DU-145 prostate
[9] = system: PC-3 prostate
[10] = system: NCI-H23 lung
[11] = system: SK-MEL-5 melanoma

| SMILES | TGI [1] [µM] | TGI [2] [µM] | TGI [3] [µM] | TGI [4] [µM] | TGI [5] [µM] | TGI [6] [µM] | TGI [7] [µM] | TGI [8] [µM] | TGI [9] [µM] | TGI [10] [µM] | TGI [11] [µM] |
| --- | --- | --- | --- | --- | --- | --- | --- | --- | --- | --- | --- |
| N#CN=C(N(Cc1ccccc1)Cc1ccccc1)N(Cc1ccccc1)Cc1ccccc1 | 31.7 | > 100 | > 100 | > 100 | > 100 | > 100 | – | – | – | – | – |
| Clc1cc(OC2C3CC4CC(C3)CC2C4)nc(Cl)n1 (stereo not given) | 35.2 | 29 | 23.3 | 49.1 | 37.7 | 30.5 | 31.9 | 39.9 | 37.9 | 31 | 32.1 |
| Oc1cccc2c(Cl)ccnc12 | 3.19 | 29.3 | > 29.7 | > 39.3 | > 100 | 33.6 | 22 | > 100 | > 100 | 26.2 | 14.8 |
| O=C(O)c1cccc2c1/C(=N/Nc1ccccc1)CC2 | > 100 | > 100 | > 100 | > 100 | > 100 | > 100 | > 100 | > 100 | > 100 | > 100 | > 100 |
| CC[C@@]1(C[C@H]2C[C@@]3(C(=O)OC)c4[nH]c5ccccc5c4CCN3C2=O)COC2(CCCCC2)O1 | > 100 | – | > 100 | > 100 | > 100 | > 100 | – | > 100 | > 100 | > 100 | 41.2 |
| Nc1cccc2cc(Cl)cnc12 | > 100 | > 100 | > 100 | > 100 | > 100 | > 100 | > 100 | > 100 | > 100 | > 100 | > 100 |
| C[C@]12CC[C@H](O)CC1=CC[C@@H]1C2CC[C@]2(C)C(=O)N(N)C(=O)CC12 (stereo not given in full) | > 100 | > 100 | > 100 | > 100 | > 100 | > 100 | > 100 | – | – | > 100 | > 100 |
| CCNC(=S)N/N=C/c1cc([N+](=O)[O-])ccc1O | – | > 100 | > 100 | > 100 | > 100 | > 100 | > 100 | > 100 | > 100 | > 100 | > 100 |
| CC(N)Cc1ccc(C(=O)Cl)cc1 (stereo not given) | > 100 | > 100 | > 100 | > 100 | > 100 | > 100 | > 100 | – | – | > 100 | > 100 |
| COc1cc([C@@H]2OCC3C(c4ccc5c(c4)OCO5)OCC32)cc(OC)c1OC (stereo not given in full) | > 100 | > 100 | > 100 | > 100 | > 100 | > 100 | > 100 | – | – | > 100 | – |
| O=C(Cc1cccs1)N[C@@H]1C(=O)N2C(C(=O)OC(c3ccccc3)c3ccccc3)=C(CO)CS[C@H]12 | > 100 | > 100 | > 100 | – | > 100 | – | > 100 | > 100 | > 100 | > 100 | > 100 |
| CC1=C(C)[C@@]2(C)O[C@@]2(C)O[C@@]2(C)O[C@@]12C | – | – | – | > 100 | > 100 | > 100 | > 100 | > 100 | > 100 | > 100 | > 100 |
| CN1CCN([C@H]2C[C@H]3[C@@H]4CC=C5C[C@@H](O)CC[C@]5(C)[C@H]4CC[C@]3(C)C2=O)CC1 | > 100 | > 100 | > 100 | > 100 | > 100 | > 100 | > 100 | – | > 100 | > 100 | > 100 |
| Cc1cn(C2CC(N(O)C(N)=O)C(CO)O2)c(=O)[nH]c1=O (stereo not given) | > 100 | > 100 | – | > 100 | > 100 | > 100 | > 100 | > 100 | > 100 | > 100 | > 100 |
| C=C(C1=CC(=O)C(C)(C)O1)[C@@H]1CC=C([C@@H]2CC[C@H]3[C@@]2(C)CC[C@H]2C(C)(C)C(=O)[C@H](O)C[C@]32C)[C@H](O)O1 | 2.4 | – | 5.48 | 3.76 | 22 | 3.48 | 3.06 | 2.91 | 2.68 | 12.6 | 24.1 |
| COc1ccc(/C=C2\CCC(C)C3=C2NC(=S)NC3c2ccc(OC)c(OC)c2)cc1OC (stereo not given) | > 31.6 | > 31.6 | > 31.6 | > 31.6 | > 31.6 | > 100 | > 31.6 | > 31.6 | > 31.6 | – | 28.8 |
| Oc1cc2c3c(c1)c1cc4c(cc1c[n+]3CC2)OCO4 | > 50.9 | > 36.6 | > 39.8 | 8.9 | > 100 | > 42.2 | – | > 42.9 | 37.3 | 13.3 | > 100 |
| O=C1c2ccccc2C2C1N2C(=O)C(F)(F)F (stereo not given) | > 100 | > 100 | > 100 | > 100 | > 100 | > 100 | > 100 | – | – | > 100 | > 100 |
| O=C1C(=Cc2ccc(O)cc2)N=C(c2ccccc2)N1n1c(-c2ccccc2)nc2ccccc2c1=O | – | > 100 | > 100 | > 100 | > 100 | > 100 | – | > 100 | > 100 | > 100 | > 100 |
| O=[N+]([O-])/C(C(Cl)=C(Cl)Cl)=C(\SCc1ccccc1)N1CCCCC1 | 34.6 | – | 57.1 | 74.3 | 81.9 | 82.4 | > 100 | > 100 | 74.8 | 42.1 | 31.4 |
| N=c1n(C(=O)N2CCCC2)c2cc(Cl)ccc2n1C1=NCCN1 | > 100 | > 100 | > 100 | > 100 | > 100 | > 100 | > 100 | > 100 | > 100 | – | > 100 |
